Experimental data published in the NIST ThermoML archive (doi:10.1021/je060271a).

Details: 343.15 K, Liquid, Vibrating tube method

CCCCC(=O)OCC(COC(=O)CCCC)(COC(=O)CCCC)COC(=O)CCCC [pentaerythritol tetrapentanoate]
Details | mass density [kg/m3]
12882 kPa | 988.2
12909 kPa | 988.3
12937 kPa | 988.2
12964 kPa | 988.3
12996 kPa | 988.3
13022 kPa | 988.5
13049 kPa | 988.3
13082 kPa | 988.4
13109 kPa | 988.3
13137 kPa | 988.5
13164 kPa | 988.4
13198 kPa | 988.5
13226 kPa | 988.4
13254 kPa | 988.4
13287 kPa | 988.5
13318 kPa | 988.6
13346 kPa | 988.6
13374 kPa | 988.6
13408 kPa | 988.7
13437 kPa | 988.6
13466 kPa | 988.7
13495 kPa | 988.7
13530 kPa | 988.7
13559 kPa | 988.7
13594 kPa | 988.8
13624 kPa | 988.8
13653 kPa | 988.9
13683 kPa | 988.8
13719 kPa | 988.9
13750 kPa | 989
13780 kPa | 989
13816 kPa | 989
13847 kPa | 989
13877 kPa | 989.1
13914 kPa | 988.9
13945 kPa | 989.2
13976 kPa | 989
14014 kPa | 989.2
14045 kPa | 989.2
14077 kPa | 989.2
14110 kPa | 989.1
14149 kPa | 989.1
14181 kPa | 989.1
14213 kPa | 989.3
14252 kPa | 989.2
14284 kPa | 989.4
14318 kPa | 989.2
14350 kPa | 989.3
14390 kPa | 989.6
14423 kPa | 989.4
14457 kPa | 989.4
14497 kPa | 989.5
14531 kPa | 989.5
14566 kPa | 989.5
14607 kPa | 989.5
14641 kPa | 989.7
14676 kPa | 989.6
14717 kPa | 989.7
14752 kPa | 989.7
14787 kPa | 989.7
14829 kPa | 989.7
14864 kPa | 989.6
14900 kPa | 989.8
14943 kPa | 989.7
14979 kPa | 989.8
15016 kPa | 989.9
15053 kPa | 989.8
15097 kPa | 989.9
15134 kPa | 989.8
15171 kPa | 989.9
15214 kPa | 989.9
15252 kPa | 990.1
15289 kPa | 989.9
15334 kPa | 990
15372 kPa | 990
15411 kPa | 990.2
15458 kPa | 990.1
15497 kPa | 990.1
15537 kPa | 990.3
15578 kPa | 990.2
15628 kPa | 990.3
15668 kPa | 990.3
15704 kPa | 990.5
15742 kPa | 990.3
15774 kPa | 990.4
15806 kPa | 990.4
15845 kPa | 990.4
15877 kPa | 990.6
15910 kPa | 990.4
15950 kPa | 990.4
15982 kPa | 990.5
16016 kPa | 990.5
16052 kPa | 990.6
16091 kPa | 990.6
16125 kPa | 990.7
16159 kPa | 990.6
16199 kPa | 990.8
16233 kPa | 990.7
16268 kPa | 990.8
16302 kPa | 990.8
16344 kPa | 990.7
16378 kPa | 990.9
16413 kPa | 990.8
16456 kPa | 990.9
16493 kPa | 991
16530 kPa | 991
16566 kPa | 991
16602 kPa | 991
16644 kPa | 990.9
16680 kPa | 991
16724 kPa | 991.1
16760 kPa | 991.1
16796 kPa | 991.1
16841 kPa | 991.2
16878 kPa | 991.1
16915 kPa | 991.1
16959 kPa | 991.1
16997 kPa | 991.2
17035 kPa | 991.2
17081 kPa | 991.3
17119 kPa | 991.3
17158 kPa | 991.3
17204 kPa | 991.4
17243 kPa | 991.4
17282 kPa | 991.4
17330 kPa | 991.6
17371 kPa | 991.5
17412 kPa | 991.6
17462 kPa | 991.6
17500 kPa | 991.5
17533 kPa | 991.6
17569 kPa | 991.6
17600 kPa | 991.6
17630 kPa | 991.5
17666 kPa | 991.6
17697 kPa | 991.7
17728 kPa | 991.8
17765 kPa | 991.9
17796 kPa | 991.9
17827 kPa | 991.7
17864 kPa | 991.9
17896 kPa | 991.9
17928 kPa | 991.9
17966 kPa | 991.9
17998 kPa | 991.8
18030 kPa | 992
18068 kPa | 992
18100 kPa | 992.1
18132 kPa | 992
18171 kPa | 991.9
18204 kPa | 992.2
18236 kPa | 992
18276 kPa | 992.1
18309 kPa | 992.1
18342 kPa | 992.1
18382 kPa | 992.2
18416 kPa | 992.2
18450 kPa | 992.1
18490 kPa | 992.3
18524 kPa | 992.4
